Results from ChEMBL document CHEMBL1147255, “Isolation and structure elucidation of Sch 642305, a novel bacterial DNA primase inhibitor produced by Penicillium verrucosum” (J Nat Prod, 2003).
Converted amounts (≈) assume the structure as drawn.

System: Escherichia coli
Assay: Antibacterial activity against Escherichia coli HS294 after 18 hrs by microtitre plate method
Format: functional

MIC: 40 µg/mL (≈ 159 µM)
Structure (SMILES): C[C@H]1CCCC[C@H]2C(=O)C=C[C@H](O)[C@@H]2CC(=O)O1
